Measured values reported in US9637483B2, “Heterocyclic compound” (TAKEDA PHARMACEUTICAL COMPANY LIMITED, priority 2013, dated 2017).

Key:
Format in all cases: biochemical
[1] = target: T1, JAK2 (Homo sapiens, UniProt O60674); assay: JAK2 enzyme inhibition test (LANCE method); settings: 1 μM test compound; for inhibition at 1 µM: read-out: JAK2 enzyme inhibitory activity (%, 1 μM)
T1 construct: purchased Invitrogen
Method in brief: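 TR-FRET (LANCE) read-out, ex 340/em 665 nm with 100 μs delay, after 1 hr room-temperature detection with europium anti-phosphotyrosine antibody and 20 mM EDTA. The preceding 1 hr kinase reaction combined JAK2, ULight-JAK1 substrate and ATP, added as 6 ng/mL, 300 nM and 45 μM solutions; enzyme-free wells defined 100% inhibition.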

[2] = target: T2, JAK1 (Homo sapiens, UniProt P23458); assay: JAK1 enzyme inhibition test (LANCE method); settings: 1 μM test compound; for inhibition at 1 µM: read-out: JAK1 enzyme inhibitory activity (%, 1 μM)
T2 construct: purchased Invitrogen
Method in brief: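 Inhibition expressed against no-enzyme wells (100% inhibition), from time-resolved fluorescence at 665 nm after Eu-anti-phosphotyrosine antibody/EDTA detection. Kinase reaction ran 1 h at room temperature, pH 7.5 HEPES buffer, ULight-JAK1 substrate and ATP diluted to 300 nM and 150 μM before addition.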

[3] = target: T3, TYK2 (Homo sapiens, UniProt P29597); assay: TYK2 enzyme inhibition test (LANCE method); settings: 1 μM test compound; for inhibition at 1 µM: read-out: TYK2 enzyme inhibitory activity (%, 1 μM)
T3 construct: purchased Invitrogen
Method in brief: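 TR-FRET (LANCE) readout: after 1 h room-temperature kinase reaction, EDTA plus 4 nM Eu-labelled anti-phosphotyrosine antibody added, signal at 665 nm (340 nm excitation). Reaction combined TYK2, ULight-JAK1 substrate and ATP, prepared at 375 ng/mL, 300 nM and 30 μM before addition, in pH 7.5 HEPES/MgCl2 buffer; enzyme-free wells define full inhibition.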

[4] = target: T4, JAK3 (Homo sapiens, UniProt P52333); assay: JAK3 enzyme inhibition test (LANCE method); settings: 1 μM test compound; for inhibition at 1 µM: read-out: JAK3 enzyme inhibitory activity (%, 1 μM)
T4 construct: purchased Invitrogen
T4 sequence (P52333 1-1124): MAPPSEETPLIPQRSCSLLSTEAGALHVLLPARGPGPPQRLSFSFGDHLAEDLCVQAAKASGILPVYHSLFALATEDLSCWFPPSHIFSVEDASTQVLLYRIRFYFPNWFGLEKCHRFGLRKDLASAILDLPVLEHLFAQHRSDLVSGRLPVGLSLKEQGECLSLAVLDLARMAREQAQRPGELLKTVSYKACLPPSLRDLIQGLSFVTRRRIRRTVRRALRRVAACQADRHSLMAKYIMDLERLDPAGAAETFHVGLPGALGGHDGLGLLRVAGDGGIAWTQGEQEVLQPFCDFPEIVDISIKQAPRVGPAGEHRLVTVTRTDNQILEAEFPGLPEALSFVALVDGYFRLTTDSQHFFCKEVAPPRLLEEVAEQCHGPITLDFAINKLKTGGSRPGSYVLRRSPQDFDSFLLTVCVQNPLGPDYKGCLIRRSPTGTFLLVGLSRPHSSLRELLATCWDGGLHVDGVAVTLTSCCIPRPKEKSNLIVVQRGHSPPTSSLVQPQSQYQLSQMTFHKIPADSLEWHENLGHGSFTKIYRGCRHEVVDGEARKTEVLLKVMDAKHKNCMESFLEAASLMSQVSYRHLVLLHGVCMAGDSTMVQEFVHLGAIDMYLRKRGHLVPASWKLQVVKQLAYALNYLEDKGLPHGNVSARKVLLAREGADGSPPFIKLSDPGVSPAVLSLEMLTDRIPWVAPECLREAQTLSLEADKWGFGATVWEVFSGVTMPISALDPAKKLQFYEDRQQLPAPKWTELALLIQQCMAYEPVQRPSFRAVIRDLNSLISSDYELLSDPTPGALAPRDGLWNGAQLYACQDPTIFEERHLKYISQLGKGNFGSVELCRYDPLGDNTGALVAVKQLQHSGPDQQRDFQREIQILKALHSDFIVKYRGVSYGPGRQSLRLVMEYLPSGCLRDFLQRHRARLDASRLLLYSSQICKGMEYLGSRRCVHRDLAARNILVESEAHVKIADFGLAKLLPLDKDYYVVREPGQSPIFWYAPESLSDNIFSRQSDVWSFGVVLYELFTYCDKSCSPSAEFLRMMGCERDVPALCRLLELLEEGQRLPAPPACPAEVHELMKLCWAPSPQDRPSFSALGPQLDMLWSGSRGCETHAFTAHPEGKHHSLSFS
Method in brief: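 TR-FRET (LANCE) read: 1 h room-temperature reaction, EDTA quench, Eu-anti-phosphotyrosine antibody, emission 665 nm after 340 nm excitation. Added solutions held 12 ng/mL JAK3, 300 nM ULight-JAK1 substrate and 15 μM ATP (pH 7.5 HEPES). Activity expressed against no-enzyme wells defined as full inhibition.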

T2 sequence (P23458 whole entry): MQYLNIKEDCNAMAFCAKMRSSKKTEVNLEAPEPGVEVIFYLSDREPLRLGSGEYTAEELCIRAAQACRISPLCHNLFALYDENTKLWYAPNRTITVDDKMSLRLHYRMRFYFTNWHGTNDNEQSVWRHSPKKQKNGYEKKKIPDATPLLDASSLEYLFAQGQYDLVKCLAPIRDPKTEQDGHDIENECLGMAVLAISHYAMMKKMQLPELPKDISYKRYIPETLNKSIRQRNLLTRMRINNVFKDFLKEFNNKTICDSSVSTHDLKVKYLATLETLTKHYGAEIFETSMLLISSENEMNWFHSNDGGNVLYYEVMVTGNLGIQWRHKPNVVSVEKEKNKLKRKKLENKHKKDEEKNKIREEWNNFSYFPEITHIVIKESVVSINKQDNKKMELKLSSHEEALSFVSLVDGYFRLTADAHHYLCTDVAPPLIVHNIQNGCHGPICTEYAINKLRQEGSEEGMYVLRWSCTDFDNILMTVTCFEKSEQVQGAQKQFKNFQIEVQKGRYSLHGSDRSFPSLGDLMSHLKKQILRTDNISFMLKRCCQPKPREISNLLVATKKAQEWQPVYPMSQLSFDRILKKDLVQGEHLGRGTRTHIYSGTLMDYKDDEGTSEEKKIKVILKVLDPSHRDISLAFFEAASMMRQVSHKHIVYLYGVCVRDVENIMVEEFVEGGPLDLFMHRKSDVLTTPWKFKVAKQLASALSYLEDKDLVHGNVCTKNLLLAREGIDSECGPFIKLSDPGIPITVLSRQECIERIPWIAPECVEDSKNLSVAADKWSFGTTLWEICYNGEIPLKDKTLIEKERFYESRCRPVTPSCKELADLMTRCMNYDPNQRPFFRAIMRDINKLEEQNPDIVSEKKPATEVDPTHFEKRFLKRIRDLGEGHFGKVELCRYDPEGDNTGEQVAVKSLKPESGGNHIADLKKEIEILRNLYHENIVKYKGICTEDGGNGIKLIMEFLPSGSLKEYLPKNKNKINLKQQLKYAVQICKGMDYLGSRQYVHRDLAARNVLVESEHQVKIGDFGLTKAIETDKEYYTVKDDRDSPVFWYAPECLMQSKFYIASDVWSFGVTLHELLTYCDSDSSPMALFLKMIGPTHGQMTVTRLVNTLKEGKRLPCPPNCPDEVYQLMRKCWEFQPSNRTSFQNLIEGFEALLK
T3 sequence (P29597 whole entry): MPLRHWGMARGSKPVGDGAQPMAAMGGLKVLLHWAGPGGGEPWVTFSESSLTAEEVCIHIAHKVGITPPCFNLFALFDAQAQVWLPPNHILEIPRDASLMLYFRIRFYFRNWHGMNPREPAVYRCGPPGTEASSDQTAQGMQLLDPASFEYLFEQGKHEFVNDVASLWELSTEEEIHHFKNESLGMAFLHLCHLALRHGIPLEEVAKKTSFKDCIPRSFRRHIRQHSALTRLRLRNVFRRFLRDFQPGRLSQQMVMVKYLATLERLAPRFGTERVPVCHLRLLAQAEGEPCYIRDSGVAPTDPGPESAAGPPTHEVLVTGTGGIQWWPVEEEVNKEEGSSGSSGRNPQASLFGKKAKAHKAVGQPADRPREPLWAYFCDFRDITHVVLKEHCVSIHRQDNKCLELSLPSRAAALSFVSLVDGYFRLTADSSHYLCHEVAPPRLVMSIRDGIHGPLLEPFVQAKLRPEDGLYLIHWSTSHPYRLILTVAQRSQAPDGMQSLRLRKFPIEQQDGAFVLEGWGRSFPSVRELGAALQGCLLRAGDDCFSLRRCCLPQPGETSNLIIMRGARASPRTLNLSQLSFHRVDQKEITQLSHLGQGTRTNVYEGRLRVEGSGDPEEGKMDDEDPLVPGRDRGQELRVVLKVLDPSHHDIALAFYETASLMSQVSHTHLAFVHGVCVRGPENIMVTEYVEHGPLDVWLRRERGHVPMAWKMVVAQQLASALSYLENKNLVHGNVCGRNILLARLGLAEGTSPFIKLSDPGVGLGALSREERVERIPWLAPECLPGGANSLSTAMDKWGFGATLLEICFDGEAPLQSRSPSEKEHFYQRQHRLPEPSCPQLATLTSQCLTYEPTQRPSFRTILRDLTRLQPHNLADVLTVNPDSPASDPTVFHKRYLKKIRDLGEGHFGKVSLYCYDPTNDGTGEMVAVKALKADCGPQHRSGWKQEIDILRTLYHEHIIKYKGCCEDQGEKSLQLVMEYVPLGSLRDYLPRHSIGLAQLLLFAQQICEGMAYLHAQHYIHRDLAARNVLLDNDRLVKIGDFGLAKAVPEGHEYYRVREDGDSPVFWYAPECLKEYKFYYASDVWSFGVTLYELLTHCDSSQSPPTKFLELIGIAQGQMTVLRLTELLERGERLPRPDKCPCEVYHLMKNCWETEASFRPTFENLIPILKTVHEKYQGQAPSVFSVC
T1 sequence (O60674 whole entry): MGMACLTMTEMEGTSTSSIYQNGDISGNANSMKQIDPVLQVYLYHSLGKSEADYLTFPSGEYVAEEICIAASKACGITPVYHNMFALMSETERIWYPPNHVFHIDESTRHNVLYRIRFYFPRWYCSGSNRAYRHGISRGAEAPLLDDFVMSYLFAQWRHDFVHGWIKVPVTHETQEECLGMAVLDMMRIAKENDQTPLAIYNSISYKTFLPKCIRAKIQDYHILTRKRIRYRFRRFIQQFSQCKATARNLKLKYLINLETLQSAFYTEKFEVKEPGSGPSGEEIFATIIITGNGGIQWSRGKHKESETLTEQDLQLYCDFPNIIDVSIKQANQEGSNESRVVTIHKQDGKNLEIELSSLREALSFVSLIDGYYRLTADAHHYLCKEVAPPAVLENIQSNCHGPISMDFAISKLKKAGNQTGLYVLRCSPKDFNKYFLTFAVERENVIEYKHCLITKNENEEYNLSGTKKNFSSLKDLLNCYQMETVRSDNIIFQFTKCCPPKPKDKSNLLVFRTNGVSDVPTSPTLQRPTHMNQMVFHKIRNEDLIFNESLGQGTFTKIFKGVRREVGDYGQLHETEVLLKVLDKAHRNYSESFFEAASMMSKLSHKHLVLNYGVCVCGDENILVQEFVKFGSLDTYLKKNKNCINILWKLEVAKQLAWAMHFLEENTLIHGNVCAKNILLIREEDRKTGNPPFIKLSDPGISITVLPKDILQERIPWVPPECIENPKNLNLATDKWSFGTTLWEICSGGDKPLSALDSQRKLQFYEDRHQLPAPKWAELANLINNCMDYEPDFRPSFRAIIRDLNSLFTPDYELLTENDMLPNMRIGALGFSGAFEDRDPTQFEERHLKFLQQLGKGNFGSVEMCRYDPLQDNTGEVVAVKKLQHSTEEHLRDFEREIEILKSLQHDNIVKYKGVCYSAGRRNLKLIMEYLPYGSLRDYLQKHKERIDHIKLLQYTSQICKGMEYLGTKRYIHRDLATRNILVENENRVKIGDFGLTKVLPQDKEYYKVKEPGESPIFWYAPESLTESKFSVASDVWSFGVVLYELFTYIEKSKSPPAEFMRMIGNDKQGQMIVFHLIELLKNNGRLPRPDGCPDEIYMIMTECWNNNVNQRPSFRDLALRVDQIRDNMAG

| SMILES | inhibition at 1 µM [1] [%] | inhibition at 1 µM [2] [%] | inhibition at 1 µM [3] [%] | inhibition at 1 µM [4] [%] | JAK1 enzyme inhibitory activity (%, 1 μM) [2] [%] | JAK3 enzyme inhibitory activity (%, 1 μM) [4] [%] | JAK2 enzyme inhibitory activity (%, 1 μM) [1] [%] | TYK2 enzyme inhibitory activity (%, 1 μM) [3] [%] |
| --- | --- | --- | --- | --- | --- | --- | --- | --- |
| C[C@H](C1CC1)n1cc(-c2cc(N3CCC(C)(O)CC3)n(C)n2)c2[nH]nc(N)c2c1=O [Example 133, 3-amino-5-((1R)-1-cyclopropylethyl)-7-(5-(4-hydroxy-4-methylpiperidin-1-yl)-1-methyl-1H-pyrazol-3-yl)-1,5-dihydro-4H-pyrazolo[4,3-c]pyridin-4-one] | 87 | 91 | 99 | 96 |  |  |  |  |
| CC(C)[C@H](C)n1cc(-c2cc(N(C)C3CCCC3)n(C)n2)c2[nH]nc(N)c2c1=O [Example 134, 3-amino-7-(5-(cyclopentyl(methyl)amino)-1-methyl-1H-pyrazol-3-yl)-5-((2S)-3-methylbutan-2-yl)-1,5-dihydro-4H-pyrazolo[4,3-c]pyridin-4-one] | 98 | 97 | 99 | 99 |  |  |  |  |
| COC[C@H]1CCCN1c1cc(-c2cn([C@@H](C)C(C)C)c(=O)c3c(N)n[nH]c23)nn1C [Example 135, 3-amino-7-(5-((2R)-2-(methoxymethyl)pyrrolidin-1-yl)-1-methyl-1H-pyrazol-3-yl)-5-((2S)-3-methylbutan-2-yl)-1,5-dihydro-4H-pyrazolo[4,3-c]pyridin-4-one] | 98 | 96 | 100 | 99 |  |  |  |  |
| COC1(c2cc(-c3cn([C@@H](C)C(C)C)c(=O)c4c(N)n[nH]c34)nn2C)CN(S(=O)(=O)C(C)C)C1 [Example 136, 3-amino-7-(5-(1-(isopropylsulfonyl)-3-methoxyazetidin-3-yl)-1-methyl-1H-pyrazol-3-yl)-5-((2S)-3-methylbutan-2-yl)-1,5-dihydro-4H-pyrazolo[4,3-c]pyridin-4-one] | 98 | 80 | 100 | 98 |  |  |  |  |
| COC1(c2cc(-c3cn(C(C#N)C(C)C)c(=O)c4c(N)n[nH]c34)nn2C)CCC(F)(F)CC1 (stereo not drawn) [Example 137, 2-(3-amino-7-(5-(4,4-difluoro-1-methoxycyclohexyl)-1-methyl-1H-pyrazol-3-yl)-4-oxo-1,4-dihydro-5H-pyrazolo[4,3-c]pyridin-5-yl)-3-methylbutanenitrile] | 99 |  | 99 |  | 92 | 98 |  |  |
| COC1(c2cc(-c3cn(C(C#N)C(C)C)c(=O)c4c(N)n[nH]c34)nn2C)CCC(F)(F)CC1 (stereo not drawn) [Example 138, 2-(3-amino-7-(5-(4,4-difluoro-1-methoxycyclohexyl)-1-methyl-1H-pyrazol-3-yl)-4-oxo-1,4-dihydro-5H-pyrazolo[4,3-c]pyridin-5-yl)-3-methylbutanenitrile] |  |  |  |  | 96 | 99 | 99 | 99 |
| COC1(c2cc(-c3cn(C(C#N)C(C)C)c(=O)c4c(N)n[nH]c34)nn2C)CCC(F)(F)CC1 (stereo not drawn) [Example 139, 2-(3-amino-7-(5-(4,4-difluoro-1-methoxycyclohexyl)-1-methyl-1H-pyrazol-3-yl)-4-oxo-1,4-dihydro-5H-pyrazolo[4,3-c]pyridin-5-yl)-3-methylbutanenitrile] |  |  |  |  | 32 | 66 | 80 | 93 |
| CN(C)C[C@H]1CCCN1c1cc(-c2cn(C(C3CC3)C3CC3)c(=O)c3c(N)n[nH]c23)nn1C [Example 145, 3-amino-5-(dicyclopropylmethyl)-7-(5-((2R)-2-((dimethylamino)methyl)pyrrolidin-1-yl)-1-methyl-1H-pyrazol-3-yl)-1,5-dihydro-4H-pyrazolo[4,3-c]pyridin-4-one] | 98 | 89 | 100 | 99 |  |  |  |  |
| Cn1nc(-c2cn(C(C3CC3)C3CC3)c(=O)c3c(N)n[nH]c23)cc1C1=CCCCC1 [Example 147, 3-amino-7-(5-(cyclohex-1-en-1-yl)-1-methyl-1H-pyrazol-3-yl)-5-(dicyclopropylmethyl)-1,5-dihydro-4H-pyrazolo[4,3-c]pyridin-4-one] | 101 | 101 | 110 | 103 |  |  |  |  |
| Cn1nc(-c2cn(C(C3CC3)C3CC3)c(=O)c3c(N)n[nH]c23)cc1C1CCCCC1 [Example 148, 3-amino-7-(5-cyclohexyl-1-methyl-1H-pyrazol-3-yl)-5-(dicyclopropylmethyl)-1,5-dihydro-4H-pyrazolo[4,3-c]pyridin-4-one] | 101 | 101 | 110 | 104 |  |  |  |  |

Now from value to compound:

| inhibition at 1 µM [1] [%] | inhibition at 1 µM [2] [%] | inhibition at 1 µM [3] [%] | inhibition at 1 µM [4] [%] | JAK1 enzyme inhibitory activity (%, 1 μM) [2] [%] | JAK3 enzyme inhibitory activity (%, 1 μM) [4] [%] | JAK2 enzyme inhibitory activity (%, 1 μM) [1] [%] | TYK2 enzyme inhibitory activity (%, 1 μM) [3] [%] | SMILES |
| --- | --- | --- | --- | --- | --- | --- | --- | --- |
| 99 | 98 | 99 | 100 |  |  |  |  | CN(C)[C@H]1CCN(c2cc(-c3cn(-c4c(F)cccc4F)c(=O)c4c(N)n[nH]c34)nn2C)C1 [Example 140, 3-amino-5-(2,6-difluorophenyl)-7-(5-((3S)-3-(dimethylamino)pyrrolidin-1-yl)-1-methyl-1H-pyrazol-3-yl)-1,5-dihydro-4H-pyrazolo[4,3-c]pyridin-4-one] |
| 99 | 98 | 100 | 100 |  |  |  |  | Cn1nc(-c2cn(-c3c(F)cccc3F)c(=O)c3c(N)n[nH]c23)cc1N1CCC(C#N)CC1 [Example 141, 1-(3-(3-amino-5-(2,6-difluorophenyl)-4-oxo-4,5-dihydro-1H-pyrazolo[4,3-c]pyridin-7-yl)-1-methyl-1H-pyrazol-5-yl)piperidine-4-carbonitrile] |
| 98 | 98 | 98 | 99 |  |  |  |  | Cn1nc(-c2cn(-c3c(F)cccc3F)c(=O)c3c(N)n[nH]c23)cc1N1CCC[C@@H]1CC#N [Example 142, ((2R)-1-(3-(3-amino-5-(2,6-difluorophenyl)-4-oxo-4,5-dihydro-1H-pyrazolo[4,3-c]pyridin-7-yl)-1-methyl-1H-pyrazol-5-yl)pyrrolidin-2-yl)acetonitrile] |
| 98 | 99 | 100 | 99 |  |  |  |  | Cn1nc(-c2cn(-c3c(F)cccc3F)c(=O)c3c(N)n[nH]c23)cc1N1CCOCC1 [Example 143, 3-amino-5-(2,6-difluorophenyl)-7-(1-methyl-5-(morpholin-4-yl)-1H-pyrazol-3-yl)-1,5-dihydro-4H-pyrazolo[4,3-c]pyridin-4-one] |
| 98 | 92 | 100 | 99 |  |  |  |  | COC1(c2cc(-c3cn(-c4c(F)cccc4F)c(=O)c4c(N)n[nH]c34)nn2C)CN(S(=O)(=O)C(C)C)C1 [Example 144, 3-amino-5-(2,6-difluorophenyl)-7-(5-(1-(isopropylsulfonyl)-3-methoxyazetidin-3-yl)-1-methyl-1H-pyrazol-3-yl)-1,5-dihydro-4H-pyrazolo[4,3-c]pyridin-4-one] |
